According to US9045524B2, “Selective caspase inhibitors and uses thereof” (NOVAGENESIS FOUNDATION, priority 2009, dated 2015):
Like-named read-outs stand apart in the source and are kept apart here.

Legend:
Caspase-9 = Caspase-9 (Homo sapiens (Human), UniProt P55211); experiment: Caspase-9 Inhibitor Drug Screening Kit, fluorometric (AFC liberation); format: biochemical
Procedure: (§1) The level of inhibition of caspase-1, -3, -5, -7, -9 activity was determined by comparison of the relative fluorescence intensity in samples with or without the compound.

Caspase-1 = Caspase-1 (Homo sapiens (Human), UniProt P29466); experiment: Caspase-1 Inhibitor Drug Screening Kit, fluorometric (AFC liberation); format: biochemical; details: for IC50: 30-minute incubation at 37° C., approximations of the average values, read-out: Caspase enzymatic activity, IC50 (uM) Caspase 1
Sequence of Caspase-1 (P29466 120-404): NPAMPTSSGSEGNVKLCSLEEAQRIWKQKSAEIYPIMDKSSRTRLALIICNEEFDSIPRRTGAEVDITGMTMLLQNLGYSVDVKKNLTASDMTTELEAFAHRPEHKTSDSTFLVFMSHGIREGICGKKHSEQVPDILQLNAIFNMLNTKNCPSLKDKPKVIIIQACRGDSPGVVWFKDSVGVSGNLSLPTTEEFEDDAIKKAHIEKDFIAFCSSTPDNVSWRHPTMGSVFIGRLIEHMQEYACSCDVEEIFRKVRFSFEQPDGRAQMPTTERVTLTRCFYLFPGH
Procedure: as §1

Caspase-7 = Caspase-7 (Homo sapiens (Human), UniProt P55210); experiment: Caspase-7 Inhibitor Drug Screening Kit, fluorometric (AFC liberation); format: biochemical
Sequence of Caspase-7 (P55210 whole entry): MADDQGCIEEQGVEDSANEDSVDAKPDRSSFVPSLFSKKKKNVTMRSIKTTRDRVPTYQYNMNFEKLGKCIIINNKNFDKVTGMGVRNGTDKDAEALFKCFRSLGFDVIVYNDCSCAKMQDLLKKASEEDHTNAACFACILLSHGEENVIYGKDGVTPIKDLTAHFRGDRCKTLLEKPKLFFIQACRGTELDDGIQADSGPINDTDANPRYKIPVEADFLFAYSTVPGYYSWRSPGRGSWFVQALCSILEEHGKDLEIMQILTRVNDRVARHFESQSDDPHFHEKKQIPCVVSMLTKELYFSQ
Procedure: as §1

Glo3/7 = Glo3/7 assay; format: biochemical
[1] = tested on: proteolytic cleavage of PARP (poly ADP-ribose polymerase) in Hela cells; experiment: Inhibition of staurosporine-induced PARP cleavage in live Hela cells; format: cell-based; details: for inhibition at 50 µM: Homo sapiens, HeLa
Procedure: To test the efficacy of caspase-3 inhibitors at the cellular level, the ability of selected compounds to inhibit the proteolytic cleavage of PARP (poly ADP-ribose polymerase) was evaluated in live Hela cells.
Briefly, in this assay Hela cells are seeded in 96 well plates and incubated for 4 hours with staurosporine, a well characterized inducer of apoptosis, alone or together with different concentrations of compound (50, 25, 10 and 3 uM). After formaldehyde-based fixation, the cells are stained with a fluorescein-labeled anti-cleaved PARP antibody (Cell signaling, Cat#: 9547) and counterstained with Hoechst33342 (Invitrogen, Cat#: H3570) to mark all nuclei. Fluorescence images are taken on a Cellomics™ microscope system (Thermo Scientific, Pittsburgh, USA) with the Hoechst stain in the blue channel and the cleaved PARP antibody stain in the green channel. The percentage of cleaved PARP positive cells is determined by calculating the ratio between nuclei with a cleaved PARP antibody staining above a certain threshold and all (Hoechst positive) nuclei. The efficacy of caspase-3 inhibition is determined by calculating the ratio between cleaved PARP positive cells after staurosporine incubation together with compounds and staurosporine incubation without compounds.

Caspase-5 = Caspase-5 (Homo sapiens (Human), UniProt P51878); experiment: Caspase-5 Inhibitor Drug Screening Kit, fluorometric (AFC liberation); format: biochemical; details: 30-minute incubation at 37° C.; approximations of the average values; read-out: Caspase enzymatic activity, IC50 (uM) Caspase 5
Sequence of Caspase-5 (P51878 137-434): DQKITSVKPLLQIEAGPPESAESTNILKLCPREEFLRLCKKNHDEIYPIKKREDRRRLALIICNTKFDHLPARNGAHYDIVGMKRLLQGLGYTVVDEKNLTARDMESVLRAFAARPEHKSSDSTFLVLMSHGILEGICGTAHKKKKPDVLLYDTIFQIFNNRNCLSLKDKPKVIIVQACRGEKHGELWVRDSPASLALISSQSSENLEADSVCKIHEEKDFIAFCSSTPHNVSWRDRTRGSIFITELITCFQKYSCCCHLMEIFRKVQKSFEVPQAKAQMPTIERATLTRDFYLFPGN
Procedure: as §1

Caspase-3 = Caspase-3 (Homo sapiens (Human), UniProt P42574); experiment: Caspase-3 Inhibitor Drug Screening Kit, fluorometric (AFC liberation); format: biochemical
Sequence of Caspase-3 (P42574 29-277): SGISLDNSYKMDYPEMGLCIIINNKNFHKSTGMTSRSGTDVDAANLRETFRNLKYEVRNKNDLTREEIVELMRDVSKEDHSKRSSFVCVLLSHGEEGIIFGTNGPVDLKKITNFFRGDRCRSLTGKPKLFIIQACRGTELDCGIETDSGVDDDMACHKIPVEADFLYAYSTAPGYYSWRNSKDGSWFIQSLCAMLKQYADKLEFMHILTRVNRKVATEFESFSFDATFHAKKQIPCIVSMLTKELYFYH
Procedure: as §1

EAE in C57BL/6 mice = experiment: Chronic EAE mouse model (MOG35-55 immunization), daily clinical score and body weight; format: in vivo; set-up: key to Delay in onset of the disease / Reduction in severity of the disease / Reduction in body weight loss: +++: high level improvement; ++: moderate improvement; +: small improvement; −: no improvement; details: for Delay in onset of the disease / Reduction in body weight loss / Reduction in severity of the disease: average overall effects on the EAE model, i.p.
Excerpt: The aim of this study was to verify the effectiveness of compounds in a chronic mouse animal model of EAE. EAE is a good proof-of-principle model of neurodegeneration since it encompasses degeneration or destruction of practically all the cells in the central nervous system, includes most major immunomodulatory components, and is able to maintain normal innate regenerative functions in the animal. This is a standard model (Antel J P et al., J Neurosci Res. 1997, 50: 345-353) used mainly to mimic the course evolution of Multiple Sclerosis (MS) in humans, and is commonly used for studying disease mechanisms and testing potential therapies. EAE is induced by immunization with myelin proteins, leading to development of myelin-specific T cells. These autoreactive T cells traffic into CNS parenchyma where they initiate an inflammatory cascade through recruitment of other cells such as monocytes and neutrophils. Accumulation of immune cells within CNS leads to myelin damage, axonal loss and clinical deficit in affected animals. EAE can be induced in a variety of species and strains of animals [mice, Rat, marmoset monkey, rhesus macaques] using various CNS antigens [Myelin Oligodendrocyte Glycoprotein (MOG), proteolipid protein (PLP) and myelin basic protein (MBP)]. Seven to 8 week old female C57BL/6 mice were purchased from Charles River Laboratories, and housed at MISPRO™ animal facility for one week before experimentation for adaptation to the new environment. All proper animal experimentation and ethics approvals were obtained prior to the start of any experiments. Mice were immunized subcutaneously with 100 μg of MOG35-55 (Sheldon Biotechnology Centre, McGill University) in CFA containing 5 mg/ml of desiccated (killed and dried) Mycobacterium tuberculosis H37Ra (Difco, Inc), at two sites on the back. The mice were then injected with 200 ng of pertussis toxin (List Biological Laboratories, Inc) in PBS intraperitoneally on days 0 and 2 using 25 gauge needles and scored daily using an EAE clinical scale as detailed below (Touil T et al., J Neurol Sci. 2008, 271:191-202; Antel J P et al., 1997, supra; Owens T et al., Curr Pharm Des. 2005, 1:1031-1037).
EAE was clinically assessed throughout the experiments by daily scoring using a scale from 0 to 5 as follows: partial limp tail, 0.5; full limp tail, 1; limp tail and waddling gait, 1.5; paralysis of one hind limb, 2; paralysis of one hind limb and partial paralysis of other hind limb, 2.5; paralysis of both hind limbs, 3; ascending paralysis, 3.5; paralysis of trunk, 4; moribund, 4.5; death, 5. In all the EAE models a body weight loss is always associated with the clinical signs. This body weight loss is associated with the loss of the function and the paralysis of the muscle (atrophy inducing loss of weight). For animals showing a clinical sign of 2 or more, the food and the water were presented inside the cage to facilitate eating and drinking.
At the onset of clinical signs of EAE, the mice were treated with 200 μl of Compound 51, 53, 57, 59, 101, 104, 105, 111 or 123 dissolved in 2.5% Dimethyl sulfoxide (DMSO) in PBS, while placebo groups were treated with 2.5% Dimethyl sulfoxide (DMSO) in PBS only, by intraperitoneal injection at different time of the clinical evolution.

[2] = 30-minute incubation at 37° C., approximations of the average values, read-out: Caspase enzymatic activity, IC50 (uM) Caspase 9
[3] = 30-minute incubation at 37° C., approximations of the average values, read-out: Caspase enzymatic activity, IC50 (uM) Caspase 7
[4] = 4 h, read-out: % inhibition of PARP cleavage at 50 uM compound, Hela cells, staurosporine 4 hours, 50 uM compound
[5] = 30-minute incubation at 37° C., approximations of the average values, read-out: Caspase enzymatic activity, IC50 (uM) Caspase 3
[6] = FIG. 2, i.p. from day 10 to 16 post immunization, versus placebo
[7] = FIG. 1, i.p. from day 10 to 16 post immunization, versus placebo

Sequence of Caspase-9 (P55211 whole entry): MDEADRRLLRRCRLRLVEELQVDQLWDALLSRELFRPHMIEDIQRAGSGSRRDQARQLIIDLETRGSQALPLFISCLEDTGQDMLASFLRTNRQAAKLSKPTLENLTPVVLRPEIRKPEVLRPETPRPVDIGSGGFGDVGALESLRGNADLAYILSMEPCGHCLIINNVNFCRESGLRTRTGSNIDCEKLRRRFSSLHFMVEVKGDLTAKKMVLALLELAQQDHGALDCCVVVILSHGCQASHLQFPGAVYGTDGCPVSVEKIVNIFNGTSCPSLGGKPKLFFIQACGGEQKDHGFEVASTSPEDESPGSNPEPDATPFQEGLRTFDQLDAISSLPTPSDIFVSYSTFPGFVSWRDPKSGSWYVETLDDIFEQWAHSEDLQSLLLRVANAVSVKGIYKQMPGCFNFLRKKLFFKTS

Structure (SMILES)	IC50 (Caspase-9; [2])	IC50 (Caspase-1)	IC50 (Caspase-7; [3])	IC50 (Glo3/7)	inhibition at 50 µM [1, 4]	IC50 (Caspase-5)	IC50 (Caspase-3; [5])	Delay in onset of the disease (EAE in C57BL/6 mice)	Reduction in body weight loss (EAE in C57BL/6 mice)	Reduction in severity of the disease (EAE in C57BL/6 mice)	Cumulative clinical score (EAE in C57BL/6 mice; [7])	Disease onset (EAE in C57BL/6 mice; [7])	Loss of body weight (EAE in C57BL/6 mice; [7])	clinical severity of the disease (EAE in C57BL/6 mice; [7])	maximal clinical score (EAE in C57BL/6 mice; [7])	IC50 (Caspase-7; read-out: IC50 caspase-7)	IC50 (Caspase-3; read-out: IC50 caspase-3)	also measured
COC(=O)C[C@@H](/C=C/S(C)(=O)=O)NC(=O)[C@@H](NC(=O)[C@@H](NC(=O)[C@H](CC(=O)OC)NC(=O)OCc1ccccc1)c1ccccc1)C(C)C [Compound 101, Z-Asp(β-methyl)-phenylglycine-Val-Asp(β-methyl)methyl vinyl sulfone]	> 3.33 µM	> 3.33 µM	> 3.33 µM	20 µM	40%	> 3.33 µM	> 3.33 µM	+	++	+	–	–	–	–	–	–	–	inhibition at 50 µM ([1]; Hela cells, 50 uM, read-out: % of inhibition with compound relative to DEVDFMK): 45%; Disease onset (EAE in C57BL/6 mice; [6]): delayed; Loss of body weight (EAE in C57BL/6 mice; [6]): less than placebo; severity of the disease (EAE in C57BL/6 mice; [6]): reduced significantly at the early stage of the disease; Loss of body weight (EAE in C57BL/6 mice; FIG. 3, i.p. from day 14 to 19 post immunization, versus placebo): less than in the placebo group
COC(=O)C[C@@H](/C=C/S(C)(=O)=O)NC(=O)[C@@H](NC(=O)[C@@H](NC(=O)[C@H](CC(=O)OC)NC(=O)OCc1ccccc1)C1Cc2ccccc2C1)C(C)C [Compound 51, Z-Asp(β-methyl)-Indanylglycine-Val-Asp(β-methyl)methyl vinyl sulfone]	> 3 µM	> 3 µM	> 3 µM	> 50 µM	> 50%	> 3 µM	1 µM	++	+++	++	significantly lower compared to placebo	delayed	less than the placebo	reduced significantly	significantly lower compared to placebo	–	–	–
CC(C)[C@H](NC(=O)[C@@H](NC(=O)[C@H](CC(=O)O)NC(=O)OCc1ccccc1)C1Cc2ccccc2C1)C(=O)N[C@H](/C=C/S(C)(=O)=O)CC(=O)O [Compound 57, Z-Asp-Indanylglycine-Val-Aspmethyl vinyl sulfone]	> 3.33 µM	0.9 µM	0.2 µM	0.1 µM	> 50%	> 3.33 µM	0.03 µM	+	+	+	reduced the cumulative score	without delaying the onset of the disease	did not show and difference compared to placebo	reduced also the clinical severity of the disease	without any significant effect on the maximal score	0.18 to 0.3 µM	0.03 to 0.09 µM	fold less efficiency against caspase-1 than against group III caspases (Caspase-1): about 29 fold
CC(C)[C@H](NC(=O)[C@H](CCC(=O)O)NC(=O)[C@H](CC(=O)O)NC(=O)OCc1ccccc1)C(=O)N[C@H](/C=C/S(C)(=O)=O)CC(=O)O [Compound 59, Z-Asp-Glu-Val-Aspmethyl vinyl sulfone]	0.5 µM	1.4 µM	0.04 µM	0.09 µM	–	> 3.33 µM	0.02 µM	++	++	++	–	–	–	–	–	0.042 µM	0.02 µM	IC50 (Caspase-9; read-out: IC50 caspase-9): 0.509 µM; effectivity in inhibiting PARP cleavage ([1]; Hela cells, staurosporine): showing effectivity especially relative to DEVD-fmk
